In US9371295B2, “Compounds for use in the treatment of disorders that are ameliorated by inhibition of HDAC” (IRBM—Science Park S.p.A., priority 2012, dated 2016):

Assays:
[1] = test system: human γ-globin promoter (EGFP reporter) in K562 cells; assay: HbF activation assay on K562 (EGFP/RFP reporter model system for screening of inducers of fetal hemoglobin); assay type: cell-based; settings: 60 hours
Outline: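 K562 cells stably carrying EGFP under the human γ-globin promoter and far-red FP under the β-globin promoter, with the LCR, were seeded at 1000 cells/well. Cells were exposed to compounds (0.25% DMSO final) for 60 h at 37 °C. Fluorescence was read by plate cytometry, normalized to Hoechst nuclei count, which also indicated proliferation or death.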

[2] = test system: HDAC in Hela cells; assay: HDAC Hela Cell Based assay
[3] = test system: K562 cells; assay: Erythroid differentiation of K562 cells by benzidine staining; assay type: cell-based, human
Method: (§1) The biological activity of the compounds of the present application was evaluated by examining the capacity to modulate the expression of γ-globin genes in the human K562 cell line, which is capable of differentiating in the erythroid manner by expressing genes for γ-globin if treated with modifiers of the biological response that are suitable for the purpose (Bianchi et al, J. Haematol., 113, 4, p. 951-961, 2001). The human K562 cells were cultured in RPMI 1640 medium (Sigma, St Louis, Mo., USA) supplemented with 10% foetal bovine serum (FBS; Analitical de Mori, Milan, Italy), 100 units/mL penicillin and 100 μg/mL streptomycin. Cell growth was determined according to cell number/ml, using a cell counter (Coulter Electronics, Hialeah, Fla., USA). For experiments, K562 cell cultures were initiated at 3×10^4/mL and the chemical inducers at the indicated concentrations added. Following 3-5 days incubation without a medium change erythroid differentiation was determined by staining the cells in a solution containing 0.2% benzidine in 0.5 M glacial acetic acid, 10% H2O2. Benzidine positivity indicates the presence of intracellular Hb.
(§2) The erythroid differentiation of K562 cells was investigated following treatment with selected compounds of the invention. The effect on cell proliferation was first determined for all tested molecules by culture of K562 cells in the presence of increasing concentration of the compounds. The cell number per sample was then determined after 3, 4 and 5 days. The IC50 values reported in Table 3 for the antiproliferative effect were calculated from the concentration of the compounds necessary to decrease the cell number to 50% of the values obtained in control untreated K562 cell cultures, after a 5 days culture period. Erythroid differentiation was measured by benzidine staining after 5, 6 and 7 days of cell culture and by quantitative reverse transcriptase polymerase-chain reaction (RT-qPCR) to quantify the expression of γ-globin mRNA. Different concentrations of tested compounds were employed because of their differing antiproliferative effects; accordingly, concentrations were chosen to maximize the erythroid induction effect without extensive reduction of cell viability. In Table 3 the % of benzidine positive cells and the increase in γ-globin mRNA assayed by RT-qPCR after 6 days of culture period are reported.
Table 4 reports induction of erythroid differentiation in K562 cells treated with an optimized concentration of the compound 2 in comparison with known inducers. Compound 2 is able to stimulate an increase of the proportion of benzidine-positive (hemoglobin producing) K562 cells. This is associated with an increase of the expression of γ-globin mRNA.

[4] = test system: γ-globin mRNA in K562 cells; assay: γ-globin mRNA in K562 cells by quantitative RT-PCR; assay type: cell-based, human; settings: 6 days
Method: The expression of the genes encoding for γ-globin was evaluated by quantitative RT-PCR. The analyses were carried out on material extracted from cells treated for 6 days in the conditions indicated.
Total RNA was extracted from cells by the use of TRI Reagent RNA isolation Reagent (Sigma Aldrich). All solutions and laboratory equipment were certified RNAse free. Following the manufacturers instructions, 1 mL of the reagent was added to 5*10^6 cells. After a 3 minute incubation at room temperature, 20 μg of glycogen and 200 μL of chloroform were added. The samples were then centrifuged and the aqueous phase recovered. This phase was diluted with one volume of isopropanol and centrifuged at 4° C. to let the RNA precipitate. After a washing step with methanol, the extracted RNA was dried and then resuspended in RNAse free water. The purified RNAs were stored at −80° C.
In order to determine the quality of the extracted RNA, electrophoresis runs on 0.8% agarose gel were carried out. The amount of the recovered RNA was quantified by its absorbance at 260 nm. Protein contamination quality control was carried out by ensuring that the 260/280 nm absorbance ratio was greater than 1.8
cDNA production from the extracted RNA was carried out as per ImProm-II™ Reverse Transcription System (Promega). 0.5 μg di RNA was retro-transcribed by using random hexamer. The produced cDNA was then stored at −80° C. until use.
The expression of the genes encoding for γ-globin was evaluated by quantitative RT-PCR, using the following primer and probe oligonucleotides (FAM=6-carboxy fluorescein, TAMRA=6-carboxy-N,N,N′,N′-tetramethylrhodamine):
For real-time PCR analysis we used as reference gene the endogenous control human GAPDH kit (Applied Biosystems).
as §2

[5] = test system: K562 cells; assay: Antiproliferative effect on K562 cells (cell number after 5 days); assay type: cell-based; settings: Homo sapiens, 120 h, 5 days culture, average of three experiments
Method: as §1, §2

EC50 [1] [µM]	IC50 [2] [µM]	IC50 [5] [µM]	SMILES	also measured
< 0.1	< 0.1	0.047	CCC(=O)CCCCC[C@H](NC(=O)C1(N(C)C)CCCC1)c1ncc(-c2cc3ccccc3n(C)c2=O)o1 [Compound 111, (S)-1-(dimethylamino)-N-(1-(5-(1-methyl-2-oxo-1,2-dihydroquinolin-3-yl)oxazol-2-yl)-7-oxononyl)cyclopentanecarboxamide]	% of benzidine positive cells after 6 days ([3]; 60 nM): 6%; γ-globin mRNA content (fold induction) ([4]; 60 nM): 2.51 fold induction
< 0.1	< 0.1	0.024	CCC(=O)CCCCC[C@H](NC(=O)C(C)(C)N(C)C)c1ncc(-c2cc3ccccc3n(C)c2=O)o1 [Compound 107, (S)-2-(dimethylamino)-2-methyl-N-(1-(5-(1-methyl-2-oxo-1,2-dihydroquinolin-3-yl)oxazol-2-yl)-7-oxononyl)propanamide]	% of benzidine positive cells after 6 days ([3]; 40 nM): 2%; γ-globin mRNA content (fold induction) ([4]; 40 nM): 1.87 fold induction
< 0.1	< 0.1	0.041	CCC(=O)CCCCC[C@H](NC(=O)CCN(C)C)c1ncc(-c2cc3ccccc3n(C)c2=O)o1 [Compound 106, (S)-3-(dimethylamino)-N-(1-(5-(1-methyl-2-oxo-1,2-dihydroquinolin-3-yl)oxazol-2-yl)-7-oxononyl)propanamide]	% of benzidine positive cells after 6 days ([3]; 60 nM): 8.5%; γ-globin mRNA content (fold induction) ([4]; 60 nM): 2.01 fold induction
0.1 to 1	< 0.1	> 0.05	CCC(=O)CCCCC[C@H](NC(=O)C1CCN(C)CC1)c1ncc(-c2cc3ccccc3n(C)c2=O)o1 [Compound 109, (S)-1-methyl-N-(1-(5-(1-methyl-2-oxo-1,2-dihydroquinolin-3-yl)oxazol-2-yl)-7-oxononyl)piperidine-4-carboxamide]	% of benzidine positive cells after 6 days ([3]; 60 nM): 1.5%; γ-globin mRNA content (fold induction) ([4]; 60 nM): 1.31 fold induction
0.1 to 1	< 0.1	0.2	CCC(=O)CCCCC[C@H](NC(=O)c1cncs1)c1ncc(-c2cc3ccccc3n(C)c2=O)o1 [Compound 110, (S)-N-(1-(5-(1-methyl-2-oxo-1,2-dihydroquinolin-3-yl)oxazol-2-yl)-7-oxononyl)thiazole-5-carboxamide]	% of benzidine positive cells after 6 days ([3]; 300 nM): 5%; γ-globin mRNA content (fold induction) ([4]; 300 nM): 1.19 fold induction
0.1 to 1	< 0.1	0.05	CCC(=O)CCCCC[C@H](NC(=O)C1CN(C)C1)c1ncc(-c2cc3ccccc3n(C)c2=O)o1 [Compound 92, (S)-1-methyl-N-(1-(5-(1-methyl-2-oxo-1,2-dihydroquinolin-3-yl)oxazol-2-yl)-7-oxononyl)azetidine-3-carboxamide]	% of benzidine positive cells after 6 days ([3]; 40 nM): 8%; γ-globin mRNA content (fold induction) ([4]; 40 nM): 1.24 fold induction

More lines, now with the values behind:

SMILES	EC50 [1] [µM]	IC50 [2] [µM]	IC50 [5] [µM]	also measured
CCC(=O)CCCCC[C@H](NC(=O)C1(F)CN(C)C1)c1ncc(-c2cc3ccccc3nc2OC)o1 [Compound 67, (S)-3-fluoro-N-(1-(5-(2-methoxyquinolin-3-yl)oxazol-2-yl)-7-oxononyl)-1-methylazetidine-3-carboxamide]	> 1	0.1 to 1	0.95	% of benzidine positive cells after 6 days ([3]; 1800 nM): 12%; γ-globin mRNA content (fold induction) ([4]; 1800 nM): 5.08 fold induction
CCC(=O)CCCCC[C@H](NC(=O)C(=O)N1CCN(C)CC1)c1ncc(-c2cc3ccccc3nc2OC)o1 [Compound 37, (S)-N-(1-(5-(2-methoxyquinolin-3-yl)oxazol-2-yl)-7-oxononyl)-2-(4-methylpiperazin-1-yl)-2-oxoacetamide]	> 1	0.1 to 1	0.6	% of benzidine positive cells after 6 days ([3]; 1600 nM): 16%; γ-globin mRNA content (fold induction) ([4]; 1600 nM): 7.84 fold induction
CCC(=O)CCCCC[C@H](NC(=O)C1CN(C)C1)c1ncc(-c2cc3ccccc3nc2OC)o1 [Compound 2, (S)-N-(1-(5-(2-methoxyquinolin-3-yl)oxazol-2-yl)-7-oxononyl)-1-methylazetidine-3-carboxamide]	0.1 to 1	< 0.1	0.075	% of benzidine positive cells after 6 days ([3]; 70 nM): 10%; Benzidine positive cells (%) ([3]; optimized concentration, mean ± SD of six experiments): 25 ± 3.5%; γ-globin mRNA content (fold induction) ([4]; 70 nM): 1.75 fold induction
CCC(=O)CCCCC[C@H](NC(=O)Cn1nc(C)nc1C)c1ncc(-c2cc3ccccc3nc2OC)o1 [Compound 80, (S)-2-(3,5-dimethyl-1H-1,2,4-triazol-1-yl)-N-(1-(5-(2-methoxyquinolin-3-yl)oxazol-2-yl)-7-oxononyl)acetamide]	0.1 to 1	0.1 to 1	0.25	% of benzidine positive cells after 6 days ([3]; 200 nM): 1%; γ-globin mRNA content (fold induction) ([4]; 200 nM): 1.03 fold induction
CCC(=O)CCCCC[C@H](NC(=O)c1cnc(CN2CCCC2)s1)c1ncc(-c2cc3ccccc3nc2OC)o1 [Compound 82, (S)-N-(1-(5-(2-methoxyquinolin-3-yl)oxazol-2-yl)-7-oxononyl)-2-(pyrrolidin-1-ylmethyl)thiazole-5-carboxamide]	0.1 to 1	< 0.1	> 0.4	% of benzidine positive cells after 6 days ([3]; 260 nM): 4.5%; γ-globin mRNA content (fold induction) ([4]; 260 nM): 0.96 fold induction
